What was measured:
Assay in all cases: relative viability (nuclei count vs DMSO), 5 days (fraction); higher = more cells survive
[1] = compound: OCc1c[nH]c2ccccc12 [Indole-3-carbinol] + Cc1nc(NC(=O)N2CCC[C@H]2C(N)=O)sc1-c1ccnc(C(C)(C)C(F)(F)F)c1 [Alpelisib] (partner 2 µM)
Procedure, shortened: (§1)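 Dosing by pin tool came one day after lung cancer cell lines were seeded in 1536-well plates, using either one drug or a fixed anchor-drug dose plus five library-drug doses (not always all listed) in √10 steps. After 5 days, nuclei were counted on 4× images. Relative viability is treated-well nuclei count divided by vehicle-well nuclei count, and values are medians of duplicate plates.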

[2] = compound: OCc1c[nH]c2ccccc12 [Indole-3-carbinol] + Nc1ncn([C@H]2C[C@H](O)[C@@H](CO)O2)c(=O)n1 [Decitabine] (partner 2 µM)
Procedure, shortened: as §1

[3] = compound: OCc1c[nH]c2ccccc12 [Indole-3-carbinol] + COc1cc2c(Oc3ccc(NC(=O)C4(C(=O)Nc5ccc(F)cc5)CC4)cc3F)ccnc2cc1OCCCN1CCOCC1 [Foretinib] (partner 0.25 µM)
Procedure, shortened: as §1

[4] = compound: OCc1c[nH]c2ccccc12 [Indole-3-carbinol] + COc1cccc2cc(-c3nc([C@H]4CC[C@H](C(=O)O)CC4)n4ncnc(N)c34)[nH]c12 [OSI-027] (partner 0.5 µM)
Procedure, shortened: as §1

[5] = compound: OCc1c[nH]c2ccccc12 [Indole-3-carbinol] + CCNC(=O)c1noc(-c2cc(C(C)C)c(O)cc2O)c1-c1ccc(CN2CCOCC2)cc1 [Luminespib] (partner 0.01 µM)
Procedure, shortened: as §1

Cell Line	relative viability ([1]; first compound 0.253 µM)	relative viability ([1]; first compound 0.8 µM)	relative viability ([1]; first compound 2.53 µM)	relative viability ([1]; first compound 8 µM)	relative viability ([2]; first compound 0.253 µM)	relative viability ([2]; first compound 0.8 µM)	relative viability ([2]; first compound 2.53 µM)	relative viability ([2]; first compound 8 µM)	relative viability ([3]; first compound 0.253 µM)	relative viability ([3]; first compound 0.8 µM)	relative viability ([3]; first compound 2.53 µM)	relative viability ([3]; first compound 8 µM)	relative viability ([4]; first compound 0.253 µM)	relative viability ([4]; first compound 0.8 µM)	relative viability ([4]; first compound 2.53 µM)	relative viability ([4]; first compound 8 µM)	relative viability ([5]; first compound 0.253 µM)	relative viability ([5]; first compound 0.8 µM)	relative viability ([5]; first compound 2.53 µM)	relative viability ([5]; first compound 8 µM)
NCI-H1975	0.635	0.734	0.736	0.583	0.392	0.38	0.415	0.436	0.888	0.977	1.01	0.873	0.589	0.808	0.696	0.743	0.343	0.224	0.171	0.21
RERF-LC-KJ	0.841	0.783	0.814	0.83	0.741	0.69	0.716	0.62	0.873	0.932	0.815	0.819	0.556	0.545	0.585	0.601	1.25	1.18	1.23	1.11
NCI-H322M	0.774	0.82	0.86	0.8	0.725	0.659	0.722	0.675	0.827	0.998	0.876	0.829	0.521	0.504	0.521	0.527	0.828	0.861	0.895	0.783
NCI-H1651	0.744	0.97	0.954	0.895	0.653	0.566	0.596	0.622	0.828	0.853	0.857	0.737	0.626	0.643	0.84	0.648	0.848	0.877	0.686	0.753
HARA	0.759	0.808	0.93	0.773	0.566	0.549	0.637	0.47	0.777	0.932	1.09	0.809	0.572	0.436	0.597	0.556	0.616	0.576	0.675	0.55
H3255	0.671	0.741	0.675	0.643	0.658	0.561	0.517	0.68	0.985	0.669	1.09	0.917	0.518	0.625	0.543	0.545	0.875	0.9	0.847	0.857
NCI-H441	0.796	0.831	0.794	0.736	0.241	0.245	0.283	0.234	0.784	1.1	0.952	1.05	0.555	0.73	0.604	0.622	0.324	0.334	0.456	0.301
ABC-1	0.923	1.2	1.01	0.923	0.993	1.14	1.12	1.24	0.903	0.961	1.13	1	0.381	0.511	0.565	0.565		0.696	0.803	0.509
NCI-H1437	0.928	1.04	0.937	0.811	0.591	0.599	0.599	0.591	1.29	1.34	1.24	1.2	0.917	0.849	0.895	0.852	1.07	1.2	1.13	1.11
HOP-62	1.01	0.795	0.867	0.929	0.187	0.218	0.228	0.196	1.12	1.23	1.16	1.05	0.802	0.796	0.791	0.789	0.911	0.927	0.937	0.831
EPLC-272H	1.13	0.94	0.931	0.803	0.364	0.359	0.388	0.356	0.67	0.72	0.724	0.709	0.252	0.299	0.333	0.218	0.267	0.23	0.377	0.345
COR-L 105	1.07	1.21	0.925	0.979	0.607	0.598	0.631	0.626	1.22	0.838	0.963	1.03	0.751	0.586	0.73	0.785	0.758	0.723	0.651	0.656
NCI-H2009	1.17	1.23	1.16	1.11	0.406	0.346	0.376	0.381	1.18	1.13	1.21	1.17	0.572	0.677	0.649	0.604	1.05	1.08	1.05	0.893
NCI-H23	0.618	0.723	0.637	0.629	0.335	0.314	0.316	0.291	1.03	1.01	1.04	1.02	0.589	0.732	0.566	0.55	0.219		0.233	0.223
NCI-H727	0.583	0.562	0.535	0.603	0.997	0.782	0.884	0.825	0.744	0.891	1.05	0.886	0.544	0.517	0.548	0.771	0.355	0.452	0.344	0.328
NCI-H1355	0.809	0.875	0.766	0.672	0.342	0.359	0.379	0.371	0.961	1.01	0.998	0.978	0.403	0.44	0.363	0.396	0.754	0.764	0.618	0.643
